Results reported in the NIST ThermoML archive (doi:10.1021/je049943s).

Columns and labels:
[1] = excess molar enthalpy (molar enthalpy of mixing); xn = mol fraction of the nth substance listed; settings: 308.15 K, 101.33 kPa, Liquid
[2] = 101.33 kPa, Liquid

OCCc1ccccc1 [2-phenylethanol] + CC(O)CO
[1]
Settings | excess molar enthalpy [kcal/mol]
x2 = 0.0637 | 0.0251
x2 = 0.1198 | 0.0403
x2 = 0.1695 | 0.0483
x2 = 0.2139 | 0.0548
x2 = 0.2858 | 0.0599
x2 = 0.3525 | 0.0608
x2 = 0.4495 | 0.0582
x2 = 0.5212 | 0.0576
x2 = 0.6201 | 0.0539
x2 = 0.7101 | 0.0509
x2 = 0.7656 | 0.0473
x2 = 0.8305 | 0.0397
x2 = 0.8672 | 0.0339
x2 = 0.9074 | 0.0266
x2 = 0.9289 | 0.0212
x2 = 0.9494 | 0.0158
x2 = 0.9751 | 0.00853

OCCc1ccccc1 [2-phenylethanol] + OCCOCCOCCOCCO
[1]
Settings | excess molar enthalpy [kcal/mol]
x2 = 0.0281 | -0.0289
x2 = 0.0546 | -0.0488
x2 = 0.0797 | -0.0614
x2 = 0.1036 | -0.0687
x2 = 0.1478 | -0.0782
x2 = 0.1878 | -0.0817
x2 = 0.2575 | -0.0832
x2 = 0.3161 | -0.0835
x2 = 0.4095 | -0.0859
x2 = 0.5099 | -0.0878
x2 = 0.5811 | -0.0845
x2 = 0.6754 | -0.08
x2 = 0.7351 | -0.0724
x2 = 0.8063 | -0.0606
x2 = 0.8473 | -0.0507
x2 = 0.8928 | -0.042
x2 = 0.9433 | -0.0258

OCCOCCOCCO [triethylene glycol]
[2]
Settings | mass density [kg/m3]
298.15 K | 1119.78
308.15 K | 1112.61

OCCc1ccccc1 [2-phenylethanol] + OCCO
[1]
Settings | excess molar enthalpy [kcal/mol]
x2 = 0.0823 | 0.0254
x2 = 0.1521 | 0.0386
x2 = 0.212 | 0.0456
x2 = 0.264 | 0.0486
x2 = 0.3498 | 0.0495
x2 = 0.4177 | 0.0478
x2 = 0.5183 | 0.0467
x2 = 0.5892 | 0.0446
x2 = 0.6827 | 0.0408
x2 = 0.7635 | 0.036
x2 = 0.8115 | 0.0313
x2 = 0.8659 | 0.0257
x2 = 0.8959 | 0.0214
x2 = 0.9281 | 0.0168
x2 = 0.9451 | 0.0134
x2 = 0.9627 | 0.00989
x2 = 0.981 | 0.00507

OCCc1ccccc1 [2-phenylethanol] + OCCOCCO
[1]
Settings | excess molar enthalpy [kcal/mol]
x2 = 0.05 | -0.0263
x2 = 0.0952 | -0.0434
x2 = 0.1363 | -0.0541
x2 = 0.1738 | -0.0613
x2 = 0.2399 | -0.0675
x2 = 0.2961 | -0.0721
x2 = 0.3869 | -0.0735
x2 = 0.4569 | -0.0727
x2 = 0.5579 | -0.0712
x2 = 0.6544 | -0.0684
x2 = 0.7163 | -0.0652
x2 = 0.7911 | -0.0577
x2 = 0.8347 | -0.0503
x2 = 0.8834 | -0.0401
x2 = 0.9099 | -0.0355
x2 = 0.9381 | -0.0248
x2 = 0.968 | -0.0131

CC(O)CO (stereo unspecified) [1,2-propanediol]
Settings | mass density [kg/m3]
[2], 308.15 K | 1026.15

OCCOCCO [diethylene glycol]
[2]
Settings | mass density [kg/m3]
298.15 K | 1112.38
308.15 K | 1105.88

OCCc1ccccc1 [2-phenylethanol]
Settings | mass density [kg/m3]
[2], 308.15 K | 1008.68

OCCc1ccccc1 [2-phenylethanol] + OCCOCCOCCO
[1]
Settings | excess molar enthalpy [kcal/mol]
x2 = 0.036 | -0.0244
x2 = 0.0695 | -0.0421
x2 = 0.1008 | -0.0542
x2 = 0.13 | -0.0622
x2 = 0.1832 | -0.0713
x2 = 0.2296 | -0.0755
x2 = 0.3096 | -0.079
x2 = 0.3741 | -0.0801
x2 = 0.4728 | -0.0805
x2 = 0.5737 | -0.0778
x2 = 0.6421 | -0.0755
x2 = 0.7346 | -0.0676
x2 = 0.782 | -0.06
x2 = 0.8433 | -0.0473
x2 = 0.8777 | -0.0396
x2 = 0.915 | -0.0282
x2 = 0.9556 | -0.0151
